Values of other authors, collected in patent US20150202168A1, “ORAL FILM FORMULATIONS COMPRISING DAPOXETINE AND TADALAFIL” (Sanovel Ilac Sanayi Ve Ticaret Anonim Sirketi, priority 2012, published 2015).

Tests used:
[1] = Int J Impot Res. 2006; 18(1):104-10
[2] = following oral administration
human body = settings: studies conducted

CN1CC(=O)N2[C@H](c3ccc4c(c3)OCO4)c3[nH]c4ccccc4c3C[C@@H]2C1=O [Tadalafil, (6R-trans)-6-(1,3-benzodioxol-5-yl)-2,3,6,7,12,12a-hexahydro-2-methyl-pyrazino[1′,2′:1,6]pyrido[3,4-b]indole-1,4-dione]
solubility in water: poorly soluble

CN(C)[C@@H](CCOc1cccc2ccccc12)c1ccccc1 [dapoxetine]
interactions with PDE5 inhibitors [1]: does not have pharmaceutical interactions | binding to the plasma proteins [2]: almost completely

Mogroside
toxicity to human body (human body): not toxic
